Where a name gives a salt, the structure may show the parent alone. Read-outs that look alike come from different tables or passages of the source.

Assay [1] deals with limbic D-2 dopamine receptor (Rattus norvegicus, UniProt P61169). As to the kind of experiment: inhibition of limbic D-2 dopamine receptor binding (3H-spiroperidol), in vitro. To be noted: read-out: % Inhibition of H3-Spiroperidol Binding at 1 μM.
Assay [2] addresses T1, 5-HT1A serotonin receptor (Rattus norvegicus, UniProt P19327).
T1 construct: Hippocampal tissue is dissected and homogenized on ice; from tissue; host or cells: rat hippocampus (membrane homogenate)
T1 sequence (P19327 1-422): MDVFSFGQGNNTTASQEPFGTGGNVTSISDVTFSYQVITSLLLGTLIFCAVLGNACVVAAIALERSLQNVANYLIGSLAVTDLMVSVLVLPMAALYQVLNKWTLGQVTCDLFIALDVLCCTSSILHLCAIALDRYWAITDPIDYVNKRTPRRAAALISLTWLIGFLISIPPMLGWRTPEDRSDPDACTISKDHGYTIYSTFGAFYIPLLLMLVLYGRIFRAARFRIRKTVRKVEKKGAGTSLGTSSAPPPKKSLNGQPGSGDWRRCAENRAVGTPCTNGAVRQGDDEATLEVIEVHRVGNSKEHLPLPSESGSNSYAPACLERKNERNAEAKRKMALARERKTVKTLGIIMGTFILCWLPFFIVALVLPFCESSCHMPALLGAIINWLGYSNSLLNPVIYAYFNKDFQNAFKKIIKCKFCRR
Description: ex vivo inhibition of 5-HT1A serotonin receptor binding assay (3H-8-OH-DPAT, hippocampal tissue). To be noted: read-out: % Inhibition of 8-OH DPAT Binding at 1 μM. The protocol: The assay is carried out as follows:
Several groups of rats (4-6 rats/group) are injected with test compound or the appropriate vehicle. Thirty minutes later, unless otherwise noted, rats are decapitated and their brains removed. Various brain regions are dissected and rapidly frozen and maintained at -70° C. until used.
The homogenate is then centrifuged at 20,000 rpm (RC5-B; 40,000 g) and the supernatant discarded. The pellet is resuspended in 40 vols of the same buffer and incubated at 37° C. for 10 minutes to aid in the removal of endogenous serotonin. The homogenate is then centrifuged (as above) and the supernatant discarded. The pellet is then resuspended in 100 vols of buffer B (50 mM Tris HCl, pH=7.7 containing 0.1% ascorbate, 10 μM pargyline and 4 mM CaCl2) and sonicated. An aliquot is taken for protein determination by the Lowry method and the remainder stored frozen at -70° C. until used.
The homogenate (50 μl; 0.4-0.6 mg protein/sample) is incubated with 100 μl (1.5-1.8 nM) ^3 H-8-hydroxy-2-(di-n-propylamino)tetraline in a final volume of 2 ml of buffer for 10 minutes at 37° C.
Specific binding obtained in vehicle-treated rats is compared to that obtained in animals receiving a single or various doses of test compound and expressed as percent of control.

The subject of the next assay is 5-HT1A receptor. The conditions noted are these: literature, in words; cited from earlier work.
For assay [3] the following is noted: West German Patent Application No. 3,321,969A; cited from earlier work.
Where [4] appears, read: 1 μM, 3H-8-OH-DPAT, rat hippocampal tissue.

limbic D-2 dopamine receptor, sequence (P61169 whole entry): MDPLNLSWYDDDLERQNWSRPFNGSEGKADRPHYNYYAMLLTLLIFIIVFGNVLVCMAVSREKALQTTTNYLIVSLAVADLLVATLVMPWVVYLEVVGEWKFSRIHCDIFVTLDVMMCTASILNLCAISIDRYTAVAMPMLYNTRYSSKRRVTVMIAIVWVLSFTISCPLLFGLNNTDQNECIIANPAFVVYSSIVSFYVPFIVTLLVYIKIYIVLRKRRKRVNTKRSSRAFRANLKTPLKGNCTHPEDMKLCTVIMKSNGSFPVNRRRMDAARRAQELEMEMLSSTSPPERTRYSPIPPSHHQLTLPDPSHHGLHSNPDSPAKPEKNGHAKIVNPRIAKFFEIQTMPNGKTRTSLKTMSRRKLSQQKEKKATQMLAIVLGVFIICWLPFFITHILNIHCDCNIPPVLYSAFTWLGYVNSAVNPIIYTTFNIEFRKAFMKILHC

On to `O=C(CCCN1CC2C3C=CC(CCC3)C2C1)c1ccc(F)cc1` (centres unmarked) [Example 3, 1-(4-Fluorophenyl)-4-(3,3a,4,5,6,7,8,8a-octahydro-4,8-ethenocyclohepta[c]pyrrol-2(1H)-yl)-1-butanone, hydrochloride, hydrate], for which the inhibition – broadly, the relative decrease from the control value, in per cent – at 1 µM is 100% in assay [1] and 61% in assay [2].
For the compound `C1=CC2C3CCC3C1C1CN(CCc3ccc4ccccc4n3)CC21` (centres unmarked) [Example 4, 2,3,3a,4,4a,5,6,6a,7,7a-Decahydro-2-[2-(2-quinolinyl)ethyl]-4,7-etheno-2H-cyclobut[f]isoindole, dihydrochloride, hydrate], the inhibition at 1 µM in assay [1] was 17%; in assay [2] (setting [4]) it was 97%.
In the same order, the values of `C1=CC2C3CCC3C1C1CN(CCc3ccccn3)CC21` (centres unmarked) [Example 6, 2,3,3a,4,4a,5,6,6a,7,7a-Decahydro-2-[2-(2-pyridinyl)ethyl]-4,7-etheno-1H-cyclobut[f]isoindole, dihydrochloride, 1/4 hydrate] are 3% and 89%.
Take `C1=CC2C1C1C=CC2C2CN(CCc3ccc4ccccc4n3)CC12` (centres unmarked) [Example 7, 2,3,3a,4,4a,6a,6,7,7a-Octahydro-2-[2-(2-quinolinyl)ethyl]4,7-etheno-1H-cyclobut[f]isoindole, dihydrochloride, 11/4 hydrate]: the inhibition at 1 µM in assay [2] (setting [4]) was determined as 46%.
With `Clc1cccc(N2CCN(CCCN3CC4CCC(CC4)C3)CC2)c1` [Example 8, 3-[3-[4-(3-Chlorophenyl)-1-piperazinyl]propyl]-3-azabicyclo[3.2.2]nonane, dihydrochloride], the inhibition at 1 µM came out at 11% in assay [1] and 82% in assay [2].
Take `Clc1cccc(N2CCN(CCCN3CC4C5C=CC(C6CCC56)C4C3)CC2)c1` (centres unmarked) [Example 9, 2-[3-[4-(3-Chlorophenyl)-1-piperazinyl]propyl]-2,3,3a,4,4a,5,6,7,7a-decahydro-4,7-etheno-1H-cyclobut[f]isoindole, trihydrochloride, dihydrate]: the inhibition at 1 µM in assay [1] is 40%.
Same read-out and setting: with `O=C(CCCN1CC2C3C=CC(C4CC34)C2C1)c1ccc(F)cc1` (centres unmarked) [Example 10, 1-(4-Fluorophenyl)-4-(3,3a,4,4a,5,5a,6,6a-octahydro-4,6-ethenocycloprop[f]isoindole-2-(1H)-yl)-1-butanone, hydrochloride, sesquihydrate] the figure was 93%.
Consider `c1ccc2nc(CCN3CC4CCC(CC4)C3)ccc2c1` [Example 12, 3-[2-(2-Quinolinyl)ethyl[-3-azabicyclo[3.2.2]nonane, dihydrochloride, dihydrate], for which the inhibition at 1 µM in assay [2] came out at 30%.
Take `COc1ccccc1N1CCN(CCCN2CC3CCC(CC3)C2)CC1` [Example 13, 3-[3-[4-(2-Methoxyphenyl)-1-piperazinyl]propyl]-3-azabicyclo[3.2.2]nonane, trihydrochloride, 3/4 hydrate]: the inhibition at 1 µM in assay [1] worked out at 55%.
For the compound `O=C1c2ccccc2S(=O)(=O)N1CCCCN1CCN(c2ncccn2)CC1` [TVX Q 7821, 2-[4-[4-(2-pyrimidinyl)-1-piperazinyl]butyl]-1,2-benzisothiazol-3-(2H)one1,1-dioxide hydrochloride], the “binding at the 5-HT1A site” value in the assay on 5-HT1A receptor was “demonstrate binding at the 5-HT1A site”. The antidepressant activity entry in assay [3] is listed as “possess antidepressant activity”.
As to `O=C1CC2(CCCC2)CC(=O)N1CCCCN1CCN(c2ncccn2)CC1` [buspirone, 8-[4-[4-(2-pyrimidinyl)-1-piperazinyl]butyl]-8-azaspiro[4.5]decane-7,9-dione], in the assay with 5-HT1A receptor, the “binding at the 5-HT1A site” value is listed as “demonstrate binding at the 5-HT1A site”.
With `CCCC(C)C1(CC)C(=O)NC(=O)NC1=O` (centres unmarked) [pentobarbital], the “binding at the 5-HT1A site” value with 5-HT1A receptor was “do not act via the 5-HT1A receptor”.

The values are drawn from patent US4855430A, “Polycyclicamine with psychotropic activity” (American Home Products Corporation, priority 1987, dated 1989).
